In BindingDB's records for doi:10.1021/jm010066k (The University of Newcastle, 2002):
Numbered stars: 1 amine (or outer) side, 2 acyl side, 3 side chain; on linkers, the order of the positions; unused ones are H or OH. Bridge positions count the residues as written; N and C are the ends. Square brackets hold non-standard residues; d marks the D form. Peptide text beside a SMILES is read from it. Adda = CO[C@@H](Cc1ccccc1)[C@@H](C)/C=C(C)/C=C/[C@H](N[*:1])[C@H](C)C(=O)[*:2]; X1 = CC(C)C[C@H](N[*:1])C(=O)C[C@@H](C(=O)O)[C@H](C)C(=O)[*:2]; NMeDha = C=C(NC)C(=O)O

Assay: Inhibition of microcystin analogues to catalytic subunits of Serine/threonine protein phosphatase 2A (PP2Ac)

Compound `C=C1C(=O)N[C@H](CN)C(=O)N[C@@H](CC(C)C)C(=O)C[C@@H](C(=O)O)[C@H](C)C(=O)N[C@@H](C)C(=O)N[C@@H](/C=C/C(C)=C/[C@H](C)[C@H](Cc2ccccc2)OC)[C@H](C)C(=O)N[C@@H](C(=O)O)CCC(=O)N1C` [11,22-Dicarboxy-25-isobutyl-15-(6-methoxy-3,5-dimethyl-7-phenyl-hepta-1,3-dienyl)-7,14,18,21-tetramethyl-6-methylene-2,5,8,13,17,20,24-heptaoxo-1,4,7,12,16,19hexaaza-cyclopentacos-3-ylmethyl-ammonium] has an IC50 of 9 nM.

For `C=C1C(=O)N[C@H](C)C(=O)N[C@@H](CC(C)C)C(=O)C[C@@H](C(=O)O)[C@H](C)C(=O)N[C@@H](C)C(=O)N[C@@H](/C=C/C(C)=C/[C@H](C)[C@H](Cc2ccccc2)OC)[C@H](C)C(=O)N[C@@H](C(=O)O)CCC(=O)N1C` [25-Isobutyl-15-(6-methoxy-3,5-dimethyl-7-phenyl-hepta-1,3-dienyl)-3,7,14,18,21-pentamethyl-6-methylene-2,5,8,13,17,20,24-heptaoxo-1,4,7,12,16,19hexaaza-cyclopentacosane-11,22-dicarboxylic acid] ([NMeDha][dA][X1]A[Adda][dE]-OH; lactam N-6), the IC50 was 0.3 nM.

For `C=C1C(=O)N[C@H](C)C(=O)N[C@@H](CC2CCCCC2)C(=O)C[C@@H](C(=O)O)[C@H](C)C(=O)N[C@@H](C)C(=O)N[C@@H](/C=C/C(C)=C/[C@H](C)[C@H](Cc2ccccc2)OC)[C@H](C)C(=O)N[C@@H](C(=O)O)CCC(=O)N1C` [25-Cyclohexylmethyl-15-(6-methoxy-3,5-dimethyl-7-phenyl-hepta-1,3-dienyl)-3,7,14,18,21-pentamethyl-6-methylene-2,5,8,13,17,20,24-heptaoxo-1,4,7,12,16,19hexaaza-cyclopentacosane-11,22-dicarboxylic acid], the IC50 was 3.4 nM.

For `CO[C@@H](Cc1ccccc1)[C@@H](C)/C=C(C)/C=C/[C@@H]1NC(=O)[C@H](C)NC(=O)[C@@H](C)[C@H](C(=O)O)CC(=O)[C@H](CC(C)C)NC(=O)[C@@H](C)NC(=O)CN(C2CCCCC2)C(=O)CC[C@H](C(=O)O)NC(=O)[C@H]1C` [7-Cyclohexyl-25-isobutyl-15-(6-methoxy-3,5-dimethyl-7-phenyl-hepta-1,3-dienyl)-3,14,18,21-tetramethyl-2,5,8,13,17,20,24-heptaoxo-1,4,7,12,16,19hexaaza-cyclopentacosane-11,22-dicarboxylic acid], the IC50 was 1.5 nM.

In the case of `CO[C@@H](Cc1ccccc1)[C@@H](C)/C=C(C)/C=C/[C@@H]1NC(=O)[C@H](C)NC(=O)[C@@H](C)[C@H](C(=O)O)CC(=O)[C@H](CC(C)C)NC(=O)[C@@H](C)NC(=O)CN(C)C(=O)CC[C@H](C(=O)O)NC(=O)[C@H]1C` [25-Isobutyl-15-(6-methoxy-3,5-dimethyl-7-phenyl-hepta-1,3-dienyl)-3,7,14,18,21-pentamethyl-2,5,8,13,17,20,24-heptaoxo-1,4,7,12,16,19hexaaza-cyclopentacosane-11,22-dicarboxylic acid], the IC50 is reported as 1.5 nM.
